Values joined by “and” are separate entries in the source; they are usually repeats but may differ in a detail not shown here. Equal entries are not always repeated. Structures can show the parent of a compound that is named as a salt.
Target: T1, human P2X7 (Homo sapiens, UniProt Q99572)
T1 construct: expressed in transfected cells
T1 sequence (Q99572 1-595): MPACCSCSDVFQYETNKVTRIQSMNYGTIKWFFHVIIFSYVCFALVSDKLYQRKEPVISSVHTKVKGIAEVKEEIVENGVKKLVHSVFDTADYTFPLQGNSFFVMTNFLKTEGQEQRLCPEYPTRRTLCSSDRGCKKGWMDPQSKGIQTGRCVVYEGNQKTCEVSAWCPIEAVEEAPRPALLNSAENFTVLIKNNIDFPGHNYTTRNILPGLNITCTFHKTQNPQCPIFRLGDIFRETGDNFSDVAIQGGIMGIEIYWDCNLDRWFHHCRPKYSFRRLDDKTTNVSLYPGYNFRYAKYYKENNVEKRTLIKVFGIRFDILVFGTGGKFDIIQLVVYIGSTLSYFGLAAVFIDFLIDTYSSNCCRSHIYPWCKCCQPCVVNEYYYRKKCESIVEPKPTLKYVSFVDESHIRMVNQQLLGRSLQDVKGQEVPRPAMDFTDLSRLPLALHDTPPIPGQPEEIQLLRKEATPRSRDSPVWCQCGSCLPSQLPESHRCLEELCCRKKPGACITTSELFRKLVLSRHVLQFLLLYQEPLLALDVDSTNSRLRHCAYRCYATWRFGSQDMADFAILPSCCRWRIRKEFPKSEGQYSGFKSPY
Assay: YO-PRO-1 dye uptake assay in HEK-hP2X7 cells
Assay type: cell-based
Settings: for PAM effect on ATP dose-response curve / EC50 ratio / Maximum response (fold increase) / ATP-induced YO-PRO-1 response in fixed-concentration screen: 10 µM glycoside; for PAM effect on ATP dose-response curve: HEK-hP2X7, result in words; for EC50 ratio: average EC50 for ATP + vehicle of each set of experiments used; for Maximum response (fold increase): maximum response defined at 1 mM ATP; for ATP-induced YO-PRO-1 response in fixed-concentration screen: 200 µM ATP, compared with ATP + DMSO
Experimental: ATP-induced dye uptake experiments were performed as described previously ([Bidula et al., 2019b]). Briefly, HEK-hP2X7 cells were plated at 2 × 10^4 cells per well (100 μl per well) in complete medium and left overnight to attach to poly-D-lysine–coated 96-well plates. YO-PRO-1 iodide was prepared in a low divalent buffered solution ([…], 2 mM KCl, 13 mM D-glucose, 10 mM HEPES, 0.2 mM CaCl2 pH 7.3) to a final concentration of 2 μM. Medium was removed from the plate using a manual multichannel pipette and YO-PRO-1 containing buffer applied to wells (180 μl per well). […] A Flexstation 3 plate reader (Molecular Devices, Sunnyvale, CA) was used to record YO-PRO-1 fluorescence in HEK-hP2X7 for 300 seconds after the addition of ATP (at 10× final concentration) with/without ginsenoside compounds or vehicle (DMSO). Plates were allowed to warm up to 37°C for 10 minutes before initiating the recording. Baseline recordings were made for 40 seconds before compound addition using the Flexstation 3 fluidics system. YO-PRO-1 fluorescence was measured at 520 nm after excitation at 490 nm (auto cutoff at 495 nm), and the sample interval was 3.5 seconds. Flexstation settings were photomultiplier tube (PMT) medium, six reads per well, pipette height 170, and a rate of injection of 3. Data were acquired using Softmax Pro version 5.4 (Molecular Devices). To analyze the data, area under the dye uptake curve was calculated in Softmax Pro version 5 using zero baseline data with a lag time of 50 seconds (50–300 seconds).
Results are expressed as means ± S.D. from the indicated number of experiments. For YO-PRO-1 dye uptake and intracellular calcium experiments, each independent experiment used triplicate wells, and the means of the replicates were collated and plotted. Technical replicates were used to ensure reliability of fluorescence values. […] Dose-response curves were plotted by a nonlinear regression fit with variable slope using GraphPad Prism software version 7. Half-maximal responses are expressed as EC50 values with 95% confidence intervals. These values were calculated from the collated data for each compound from three independent experiments. Statistical differences were determined by analysis of the data by one-way ANOVA followed by Dunnett’s multiple comparison test or Sidak’s multiple comparison test using GraphPad Prism version 7. P < 0.05 was the accepted minimum level of significance.

| Structure (SMILES) | PAM effect on ATP dose-response curve | EC50 ratio | Maximum response (fold increase) | ATP-induced YO-PRO-1 response in fixed-concentration screen | Effect of AZ10606120 pretreatment on response to ATP + glycoside (P2X7 dependence) (10 µM AZ10606120 pretreatment) | Toxic effect on cells (YO-PRO-1 uptake without ATP or without P2X7) |
| --- | --- | --- | --- | --- | --- | --- |
| CC(C)=CCC[C@](C)(O[C@@H]1O[C@H](CO[C@@H]2O[C@H](CO)[C@@H](O)[C@H](O)[C@H]2O)[C@@H](O)[C@H](O)[C@H]1O)[C@H]1CC[C@]2(C)[C@@H]1[C@H](O)C[C@@H]1[C@@]3(C)CC[C@H](O[C@@H]4O[C@H](CO)[C@@H](O)[C@H](O)[C@H]4O[C@@H]4O[C@H](CO)[C@@H](O)[C@H](O)[C@H]4O)C(C)(C)[C@@H]3CC[C@]12C [Ginsenoside-Rb1, ginsenoside-Rb1] | only type I PAM activity | 1.2 | 1.9 fold and 1.96 fold |  |  |  |
| COC(=O)[C@@]1(C)CC[C@]2(C(=O)O)CC[C@]3(C)C(=CC[C@@H]4[C@@]5(C)C[C@H](O)[C@H](O[C@@H]6OC[C@@H](O[C@@H]7O[C@H](CO)[C@@H](O)[C@H](O)[C@H]7O)[C@H](O)[C@H]6O)[C@@](C)(CO)[C@@H]5CC[C@]43C)[C@@H]2C1 [Esculentoside A, esculentoside A] | inactive | 0.8 | 0.94 fold | no modulation of P2X7 |  |  |
| C[C@H](CC[C@@H](O[C@@H]1O[C@H](CO[C@@H]2O[C@H](CO)[C@@H](O)[C@H](O)[C@H]2O)[C@@H](O)[C@H](O)[C@H]1O[C@@H]1O[C@H](CO)[C@@H](O)[C@H](O)[C@H]1O)C(C)(C)O)[C@H]1CC[C@@]2(C)[C@@H]3CC=C4[C@@H](CC[C@H](O[C@@H]5O[C@H](CO[C@@H]6O[C@H](CO)[C@@H](O)[C@H](O)[C@H]6O)[C@@H](O)[C@H](O)[C@H]5O)C4(C)C)[C@]3(C)[C@H](O)C[C@]12C [Mogroside V, mogroside V] |  |  |  | no modulation of P2X7 |  |  |
| C[C@H]1CC[C@@H]2[C@@H](C)[C@H]3[C@H](C[C@H]4[C@@H]5CC=C6C[C@@H](O[C@@H]7O[C@H](CO)[C@H](O)[C@H](O[C@@H]8O[C@H](CO)[C@@H](O)[C@H](O)[C@H]8O)[C@H]7O[C@@H]7O[C@@H](C)[C@H](O)[C@@H](O)[C@H]7O)CC[C@]6(C)[C@H]5CC[C@]34C)N2C1 [Solanine, solanine hydrochloride] |  |  |  | large increase | unaffected by AZ10606120 pretreatment | toxic effect on the cells |
| CC1(C)[C@@H](O[C@H]2O[C@H](C(=O)O)[C@@H](O)[C@H](O)[C@H]2O[C@@H]2O[C@H](C(=O)O)[C@@H](O)[C@H](O)[C@H]2O)CC[C@]2(C)[C@H]3C(=O)C=C4[C@@H]5C[C@@](C)(C(=O)O)CC[C@]5(C)CC[C@@]4(C)[C@]3(C)CC[C@@H]12 [Glycyrrhizic acid, glycyrrhizic acid] |  |  |  | no modulation of P2X7 |  |  |
| CC(C)=CCC[C@](C)(O)[C@H]1CC[C@]2(C)[C@@H]1[C@H](O)C[C@@H]1[C@@]3(C)CC[C@H](O[C@@H]4O[C@H](CO)[C@@H](O)[C@H](O)[C@H]4O)C(C)(C)[C@@H]3CC[C@]12C [Ginsenoside-20(S)-Rh2, 20(S)-ginsenoside-Rh2] |  | 1.8 | 2.6 fold |  |  |  |
| CC[C@H](CC[C@@H](C)[C@H]1CC[C@H]2[C@@H]3CC=C4C[C@@H](O[C@@H]5O[C@H](CO)[C@@H](O)[C@H](O)[C@H]5O)CC[C@]4(C)[C@H]3CC[C@]12C)C(C)C [Daucosterol, daucosterol] | no effect on the ATP dose-response curves | 0.7 | 1.33 fold |  |  |  |
| CC(C)=CCC[C@@](O)(CO[C@@H]1O[C@H](CO)[C@@H](O)[C@H](O)[C@H]1O)[C@H]1CC[C@]2(C)[C@@H]1CC[C@@H]1[C@@]3(C=O)CC[C@H](O[C@@H]4OC[C@H](O)[C@H](O[C@@H]5OC[C@@H](O)[C@H](O)[C@H]5O)[C@H]4O[C@@H]4O[C@@H](C)[C@H](O)[C@@H](O)[C@H]4O)C(C)(C)[C@@H]3CC[C@]12C [Gypenoside XLIX, gypenoside XLIX] | did not reduce the EC50 value for ATP | 0.9 | 1.9 fold | small increase in the ATP-induced YO-PRO-1 response, which was not statistically significant |  |  |
| C[C@@H]1O[C@@H](O[C@H]2C[C@@H](O)[C@]3(CO)[C@H]4[C@H](O)C[C@]5(C)[C@@H](C6=CC(=O)OC6)CC[C@]5(O)[C@@H]4CC[C@]3(O)C2)[C@H](O)[C@H](O)[C@H]1O [Ouabain, ouabain, reference compound] | no effect on the ATP dose-response curves | 1.1 | 1.08 fold |  |  |  |
| CC(C)=CCC[C@@](C)(O)[C@H]1CC[C@]2(C)[C@@H]1[C@H](O)C[C@@H]1[C@@]3(C)CC[C@H](O[C@@H]4O[C@H](CO)[C@@H](O)[C@H](O)[C@H]4O)C(C)(C)[C@@H]3CC[C@]12C [Ginsenoside-20(R)-Rh2, 20(R)-ginsenoside-Rh2] |  | 0.8 | 1.53 fold |  |  |  |
| CC(=O)O[C@@H]1C[C@]2(O)[C@H](CC[C@]3(C)[C@@H](c4ccc(=O)oc4)CC[C@@]32O)[C@@]2(C)CC[C@H](O[C@@H]3O[C@H](CO)[C@@H](O)[C@H](O)[C@H]3O)C=C12 [Scilliroside] | no effect on the ATP dose-response curves | 1.3 | 1.07 fold |  |  |  |
| CC(C)=CCC[C@](C)(O)[C@H]1CC[C@]2(C)[C@@H]1[C@H](O)C[C@@H]1[C@@]3(C)CC[C@H](O[C@@H]4O[C@H](CO)[C@@H](O)[C@H](O)[C@H]4O[C@@H]4O[C@H](CO)[C@@H](O)[C@H](O)[C@H]4O)C(C)(C)[C@@H]3CC[C@]12C (single isomer, unassigned) [ginsenoside-Rg3 (mixed isomers), ginsenoside-Rg3] |  |  |  | small increase in the ATP-induced YO-PRO-1 response, which was not statistically significant |  |  |
| C=C1C[C@@]23CC[C@H]4[C@@](C)(CCC[C@@]4(C)C(=O)O[C@@H]4O[C@H](CO)[C@@H](O)[C@H](O)[C@H]4O)[C@@H]2CC[C@]1(O[C@@H]1O[C@H](CO)[C@@H](O)[C@H](O)[C@H]1O[C@@H]1O[C@H](CO)[C@@H](O)[C@H](O)[C@H]1O)C3 [Stevioside, stevioside] |  | 1.0 |  | no modulation of P2X7 |  |  |
| CC(C)=CCC[C@](C)(O[C@@H]1O[C@H](CO[C@@H]2OC[C@@H](O)[C@H](O)[C@H]2O)[C@@H](O)[C@H](O)[C@H]1O)[C@H]1CC[C@]2(C)[C@@H]1[C@H](O)C[C@@H]1[C@@]3(C)CC[C@H](O[C@@H]4O[C@H](CO)[C@@H](O)[C@H](O)[C@H]4O)C(C)(C)[C@@H]3CC[C@]12C [Stevenleaf (gypenoside IX), stevenleaf] |  | 0.7 | 1.64 fold |  |  |  |

— PMC7816042, “Insights into the Structure-Activity Relationship of Glycosides as Positive Allosteric Modulators Acting on P2X7 Receptors” (Molecular Pharmacology, 2021)
